Measured values published in patent US7629308B2, “Methods relating to muscle selective calcineurin interacting protein (MCIP)” (Board of Regents, The University of Texas System, priority 2000, dated 2009).
Several values for one entry are separate records, joined by “and”; a condition that tells them apart may be missing. Equal values may be shown once.

Legend:
MCIP2 mRNA [1] = test: Northern blot of MCIP2 mRNA in C2C12 cells; type: cell-based, mouse
Procedure: (§1) Tissue culture, cell transfection or infection, reporter gene assays: C2C12 myoblasts and myotubes were cultured as previously described (Grayson et al, 1995). Ionomycin ([…]) and cyclosporin A (50 to 200 nM) were added 4 hrs prior to harvesting the cells. When included, cyclohexamide (25 mM) was added 15 min prior to ionomycin. Transient transfection with plasmids or infection with recombinant, replication-defective adenoviruses, and luciferase assays were performed as previously reported (Chin et al, 1998; Rothermel et al., 2000; Wu et al., 1973).
(§2) RNA isolation and Northern blot analysis: Total RNA was prepared from mouse tissues or C2C12 cells using Tripure (Boehringer Mannheim, Inc.) following the manufacturer's protocol. Northern blot analysis was performed with […] of total RNA in each lane and probed in Ultrahyb (Ambion) with complementary sequences representing the 3′ UTR of MCIP1 (common to all known splicing variants), exon 1 of MCIP1, exon 4 of MCIP1, or ORF segments of MCIP2 or GAPDH cDNA. Probes were generated by PCR and labeled as described previously (Rothermel et al., 2000). Signals from Northern blots were detected on a Storm PhosphorImager (Molecular Dynamics) and quantified using ImageQuant (version 1.2).

MCIP1 mRNA [2] = test: Northern blot of MCIP1 mRNA in C2C12 cells; type: cell-based, mouse
Procedure: as §1, §2

cardiac hypertrophy [3] = test: Hyperthyroid cardiac hypertrophy induced by T3 injection; type: in vivo, mouse; conditions: ten days i.p.; n=4
Procedure: (§3) Animal experiments: Lines of transgenic mice in which the cc myosin heavy chain promoter is used to drive expression of a constitutively active form of calcineurin selectively in the heart were generated and described previously (Molkentin et al., 1998). Wildtype male C57B1/6 mice were injected intraperitoneally with 3, 5, 3′-triiodothyromine (T3) ([…]) or an equal volume of 0.9% saline once a day for ten days (Robbins & Swain, 1992). All experiments involving animals were conducted using IACRAC-approved protocols.

MCIP1 mRNA [4] = test: Northern blot of MCIP1 mRNA in mouse heart and soleus; type: in vivo
Procedure: as §3, §2

MCIP2 mRNA [5] = test: Northern blot of MCIP2 mRNA in mouse heart and soleus; type: in vivo
Procedure: as §3, §2

cardiac hypertrophy [6] = test: Cardiac hypertrophy after isoproterenol infusion or wheel running exercise; type: in vivo, mouse
Procedure: Intact animal studies: In addition to the genetic cross to α-MHC-CnA* animals, α-MHC-hMCIP1 transgenic mice and wild-type littermates were subjected to two independent stimuli known to provoke cardiac hypertrophy. Twelve-week old and 28-week old male mice were surgically implanted with a subcutaneous mini-osmotic pump (Alzet model 2001) that released isoproterenol in 0.9% NaCl at a rate of 28 mg per hour per […] of body weight over a seven day period. Control pumps delivered a 0.9% NaCl solution. Hearts were harvested on day eight. The heart body weight ratio (htw/bw) of isoproterenol-treated, animals were compared to the mean htw/bw ratio of age matched saline-treated animals of the same genotype. For exercise-induced hypertrophy, 28-week old male animals were placed in individual cages where they had free access to a running wheel. The number of revolutions was monitored continuously for 28 days. The animals ran an average of 3 to 5 kilometers a day. The heart body weight ratios (htw/bw) of the exercised animals were compared to the mean htw/bw ratios of age-matched sedentary animals of the same genotype. A Wilcoxon rank sum test was used to determine statistically significant differences among treatment groups (p<0.05). All animal protocols were reviewed and approved by the appropriate institutional review boards.

Gal4-VP16 = conditions: C2C12 cells
Procedure: Tissue Culture, Cell Transfection, and Reporter Gene Assays—C2C12 myoblasts were grown in Dulbecco's modified Eagle's medium supplemented with 20% fetal bovine serum and antibiotics (100 units of penicillin and 100 g of streptomycin/ml). Myotube formation was induced by switching confluent cells to differentiation media (Dulbecco's modified Eagle's medium supplemented with 2% heat-inactivated horse serum) for 48-72 h. For transient transfection assays, C2C12 cells were plated 12 h before transfection in 12-well tissue culture dishes at 5×10^4 cells/well, and transfected with a total of 0.5 μg of plasmid DNA using LipofectAMINE Plus (Life Technologies, Inc.). Myoblasts were harvested 24 h after transfection. Myotubes were obtained by shifting cultures to differentiation media 24 h after transfection and harvesting 48 h later. To stimulate transfected cells, 1 μM ionomycin and 10 ng/ml phorbol myristate acetate (PMA) were added 4.5 h prior to harvesting. Luciferase assays of whole cell extracts were conducted as described previously (Yang et al., 1997).

[7] = tested on: constitutively active form of NFATc; test: IL-2-luc reporter driven by constitutively active NFAT in C2C12 cells; type: cell-based, mouse
Source text: (§4) GST-MCIP1 fusions were expressed from the bacterial expression plasmid pGEX-CS (T. D. Parks, et al. 1994). Luciferase reporter plasmids, Mb-luc and IL-2-luc, were constructed in pGL3 (Promega) by inserting promoter/enhancer regions from genes encoding human myoglobin (Chin et al., 1998) or IL-2 (Clipstone et al., 1992), respectively. In addition, a synthetic enhancer consisting of three copies of a high affinity MEF2 binding sequence from the desmin promoter (Naya et al., 2000) was linked to a minimal promoter (hsp68) and inserted into pGL3 yielding the des-MEF-luc reporter. The β-galactosidase reporter plasmid pCMV-lacZ (J. Grayson, et al. 1998), and expression vectors encoding constitutively active forms of NFAT (Molkentin et al., 1998), calcineurin (CnA*) (Chin et al., 1998, O'Keefe et al., 1992), or calmodulin dependent protein kinase type IV (CaMKIV) (Ho et al., 1996), were previously described. The identity of plasmid constructions was confirmed by restriction mapping and partial DNA sequencing.
(§5) Myoblasts were harvested 24 h after transfection.

calcineurin A = biological target: T1, calcineurin A (Mus musculus, UniProt P63328); test: In vitro protein-protein interaction assay (GST pull-down); type: binding
T1 construct: calcineurin A (amino acids 1-398) was translated in rabbit reticulocyte lysates; made in house; host or cells: calcineurin A: rabbit reticulocyte lysate (TNT coupled transcription/translation, Promega); GST-MCIP1: bacteria (pGEX-CS)
Procedure: In Vitro Protein-Protein Interaction Assays—GST and GST-MCIP1 fusion proteins were prepared as described previously (Grayson et al., 1998). [^35S]Methionine labeled CnA398, CnA342, and CnA266 were produced in the TNT coupled in vitro transcription/translation system (Promega). For in vitro binding assays, equivalent amounts of GST fusion proteins bound to glutathione were resuspended in 500 μl of binding buffer (20 mM Tris, pH 7.5, 100 mM KCl, 0.1 mM EDTA, 0.05% Nonidet P-40, 10% glycerol, and 1 mg/ml bovine serum albumin). [^35S]Methionine-labeled CnA proteins were added to the resuspended GST fusion proteins and incubated for 1 h. The beads were then spun down and washed three times in binding buffer. An equal volume of 2×SDS-PAGE loading buffer was added, and the suspension was boiled for 3 min. The bound proteins were then resolved on SDS-PAGE and visualized by autoradiography. ^35S-Labeled luciferase protein (Promega) was used as a negative control. For estimation of binding efficiency, 25% of the radiolabeled protein was loaded as an input control.

calcineurin = test: Luciferase reporter assays of calcineurin-dependent transcription in C2C12 cells; type: cell-based, mouse
Source text: as §4, §5
Cell culture studies: C2C12 myoblasts were maintained and transfected as previously described (Rothermel et al., 2000). Luciferase assays of whole cell extracts were performed as previously described (Rothermel et al., 2000). All results were corrected for variations in transfection efficiency by normalization to expression of a cotransfected pCMV-LacZ plasmid.

[8] = C2C12, single culture dish, normalized to GAPDH mRNA
[9] = Heart, i.p. once a day for ten days
[10] = Soleus, pooled muscles from two animals

C[C@H](CCC(=O)O)C[C@H](C)C[C@H](C)C(=O)/C=C(\O)[C@H](C)C[C@H](C)C/C=C/[C@@H](C)[C@@H](O)[C@@H](C)[C@@H](O)C[C@@H]1CC[C@@](C)([C@H]2CC[C@@](C)([C@@H](C)O)O2)O1 [Ionomycin, ionomycin]
MC1P2 (fold change in mRNA), Response to Calcineurin Activation (MCIP2 mRNA [1]; [8]): 0.94 fold and 1.00 fold and 1.12 fold | expression of MCIP2 mRNA (MCIP2 mRNA [1]; C2C12 cells): unaffected | MC1P1 (fold change in mRNA), Response to Calcineurin Activation (MCIP1 mRNA [2]; [8]): 2.42 fold and 1.94 fold and 1.26 fold | up-regulation of MCIP1 mRNA in the presence of cyclohexamide (MCIP1 mRNA [2]; C2C12 cells, cyclohexamide added 15 min prior): ~10 fold | induction of MCIP1 mRNA (MCIP1 mRNA [2]; C2C12 myoblasts or myotubes, cyclohexamide absent): 2 fold | increase of MCIP1 mRNA in the absence of cyclosporin (MCIP1 mRNA [2]; compared to cells treated with the highest dose of cyclosporin): 4 fold

N[C@@H](Cc1cc(I)c(Oc2ccc(O)c(I)c2)c(I)c1)C(=O)O [T3, 3,5, 3′-triiodothyromine]
mean heart weight (cardiac hypertrophy [3]): 180 mg | mean heart weight/body weight ratio (cardiac hypertrophy [3]): 7.2 mg/gm | MC1P1 (fold change in mRNA), Response to Thyroid Hormone (MCIP1 mRNA [4]; [9]): 1.05 fold and 0.87 fold and 1.08 fold | MC1P1 (fold change in mRNA), Response to Thyroid Hormone (MCIP1 mRNA [4]; [10]): 0.78 fold and 1.05 fold and 1.24 fold | T3 Effect, MC1P1 (aggregate fold change, mean ±SE) (MCIP1 mRNA [4]; heart and soleus): 1.01 ± 0.06 fold | expression of MCIP1 in hyperthyroid hearts (MCIP1 mRNA [4]; heart, ten days): unaltered | MC1P2 (fold change in mRNA), Response to Thyroid Hormone (MCIP2 mRNA [5]; [9]): 1.59 fold and 1.81 fold and 1.71 fold | MC1P2 (fold change in mRNA), Response to Thyroid Hormone (MCIP2 mRNA [5]; [10]): 1.72 fold and 2.21 fold and 1.62 fold | increase of MCIP2 transcript levels (MCIP2 mRNA [5]; both heart and soleus skeletal muscles): approximately 2 fold | T3 Effect, MC1P2 (aggregate fold change, mean ±SE) (MCIP2 mRNA [5]; heart and soleus): 1.78 ± 0.01 fold

CC(C)NCC(O)c1ccc(O)c(O)c1 (stereo not shown) [isoproterenol]
percent increase in heart weight to body weight ratio (cardiac hypertrophy [6]; male wild-type mice, isoproterenol by osmotic minipump over seven days): 22.8±1.95%

MCIP1: myocyte-enriched calcineurin interacting protein 1, product of human gene DSCR1; expressed from transfected plasmid or transgene
percent increase in heart weight to body weight ratio (cardiac hypertrophy [6]; α-MHC-hMCIP1 transgenic mice, isoproterenol over seven days): 9.4±0.87% | effect on Gal4-VP16 induction of UASg-TATA-luc (Gal4-VP16): not affected | effect on transcriptional activation mediated by NFAT (IL-2-luc) [7]: does not inhibit | binding to CnA(342) (calcineurin A; lacks calmodulin and calcineurin B binding regions): did not disrupt the interaction | binding to CnA(266) (calcineurin A; lacks carboxyl-terminal half of the catalytic domain): no longer capable of binding | effect on activation of the des-MEF2-luc reporter by CnA* alone or CnA* with CaMKIV (calcineurin; C2C12 cells): inhibited | effect on calcineurin response of the MCIP1 (−874 to +30)-luciferase reporter (calcineurin; C2C12 cells, not shown): represses this response | effect on activation of IL-2 and Mb enhancer constructs by CnA* (calcineurin; C2C12 myoblasts and myotubes): abolished | inhibition of calcineurin induction of the IL-2-Luc reporter gene (calcineurin; C2C12 myoblasts, pCMV-CnA*): almost completely inhibit | effect alone on activity of reporter constructs (calcineurin; TATA-luc, IL-2-luc, Mb-luc, no CnA*): no effect | effect on PMA/ionophore activation of the myoglobin enhancer (Mb-luc) (calcineurin; endogenous calcineurin, C2C12 myoblasts and myotubes): inhibited
